target: 5-HT2A receptor (Homo sapiens (Human), UniProt P28223); assay: Radioligand binding assay ([3H]5-HT competition), 5-HT2A; conditions: [3H]5-HT radioligand, membranes of HEK293 cells expressing recombinant 5-HT2A; Ki from IC50 by Cheng-Prusoff; read-out: 5-HT2A serotonin binding Ki value
Protocol: Competition binding experiments consisted of addition of 5 μL of serially diluted test compound, 50 μL of radioligand stock diluted in Assay Buffer (20 mM HEPES, pH 7.4, 10 mM MgCl2), and 145 μL of diluted membrane expressing the receptor of interest to 96-well microtiter plates, which were then incubated for one hour at room temperature. Assay incubations were terminated by rapid filtration through Perkin Elmer GF/C filtration plates under vacuum pressure using a 96-well Packard filtration apparatus, followed by washing the filter plates several times with ice cold Assay Buffer. Plates were then dried at 45° C. for a minimum of four hours. Finally, 25 μL of BetaScint scintillation cocktail was added to each well and the plates were counted in a Packard TopCount scintillation counter. In each competition study, test compounds were assayed at 10 concentrations with three replicates at each test concentration. Dose-response curves were constructed to determine IC50 values and these were converted to corresponding Ki values using the Cheng-Prusoff equation.

Chain of 5-HT2A receptor (P28223 whole entry): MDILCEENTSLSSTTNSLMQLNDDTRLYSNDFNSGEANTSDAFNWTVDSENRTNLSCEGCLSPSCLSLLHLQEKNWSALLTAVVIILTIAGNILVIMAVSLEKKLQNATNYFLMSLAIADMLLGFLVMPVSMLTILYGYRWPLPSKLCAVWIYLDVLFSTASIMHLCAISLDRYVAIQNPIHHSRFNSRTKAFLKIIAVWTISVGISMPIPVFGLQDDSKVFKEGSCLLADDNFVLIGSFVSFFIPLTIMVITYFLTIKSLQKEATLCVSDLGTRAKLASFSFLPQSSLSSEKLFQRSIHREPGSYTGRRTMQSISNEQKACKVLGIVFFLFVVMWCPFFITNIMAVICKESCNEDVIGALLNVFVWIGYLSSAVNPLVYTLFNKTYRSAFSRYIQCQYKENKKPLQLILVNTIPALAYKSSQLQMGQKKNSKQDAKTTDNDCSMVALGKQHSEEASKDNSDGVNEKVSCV

`Cc1noc(C)c1-c1cc(NC(=O)c2ccccc2)ccc1OCCN1C[C@@H]2C[C@H]1CO2` [Compound 161, N-[3-(3,5-dimethylisoxazol-4-yl)-4-[2-[(1S,4S)-2-oxa-5-azabicyclo[2.2.1]heptan-5-yl]ethoxy]phenyl]benzamide] and `Cc1noc(C)c1-c1cc(NC(=O)c2ccnn2C)ccc1OCCN1C[C@@H]2C[C@H]1CO2` [Compound 163, N-[3-(3,5-dimethylisoxazol-4-yl)-4-[2-[(1S,4S)-2-oxa-5-azabicyclo[2.2.1]heptan-5-yl]ethoxy]phenyl]-2-methyl-pyrazole-3-carboxamide] are within 1.5-fold of each other in Ki: 6.4 nM for the first, 6.73 nM for the second.

Compared with `Cc1noc(C)c1-c1cc(NC(=O)C2(F)CC2)ccc1OCCN1C[C@@H]2C[C@H]1CO2` [Compound 162, N-[3-(3,5-dimethylisoxazol-4-yl)-4-[2-[(1S,4S)-2-oxa-5-azabicyclo[2.2.1]heptan-5-yl]ethoxy]phenyl]-1-fluoro-cyclopropanecarboxamide], `Cc1noc(C)c1-c1cc(NC(=O)C2CC2)ccc1OCCN1C[C@H]2C[C@H]2C1` [Compound 164, N-[4-[2-[(1R,5S)-3-azabicyclo[3.1.0]hexan-3-yl]ethoxy]-3-(3,5-dimethylisoxazol-4-yl)phenyl]cyclopropanecarboxamide] is 2.9-fold higher in Ki: 4.7 nM for the first, 13.8 nM for the second.

First: Cc1noc(C)c1-c1cc(NC(=O)c2cccc(C(F)(F)F)c2)ccc1OCCN1CCOCC1 [Compound 165, N-[3-(3,5-dimethylisoxazol-4-yl)-4-(2-morpholinoethoxy)phenyl]-3-(trifluoromethyl)benzamide]
Second: Cc1noc(C)c1-c1cc(NC(=O)C2CC2)ccc1OCCN1CCOCC1 [Compound 166, N-[3-(3,5-dimethylisoxazol-4-yl)-4-(2-morpholinoethoxy)phenyl]cyclopropanecarboxamide]
The Ki of the first is 6.1-fold lower: 1.08 nM for the first, 6.54 nM for the second. The first binds more tightly here.

Going from `Cc1noc(C)c1-c1cc(NC(=O)C2CC2)ccc1OCCN1CCCC1` [Compound 167, N-[3-(3,5-dimethylisoxazol-4-yl)-4-(2-pyrrolidin-1-ylethoxy)phenyl]cyclopropanecarboxamide] to `CC(=O)N1CCN(CCOc2ccc(NC(=O)C3CC3)cc2-c2c(C)noc2C)CC1` [Compound 168, N-[4-[2-(4-acetylpiperazin-1-yl)ethoxy]-3-(3,5-dimethylisoxazol-4-yl)phenyl]cyclopropanecarboxamide], the Ki rises from 7.71 nM to 12.2 nM (1.6-fold). The first binds more tightly here.

`Cc1noc(C)c1-c1cc(NC(=O)C2CC2)ccc1OC[C@@H]1CCCCN1` [Compound 170, (S)—N-(3-(3,5-dimethylisoxazol-4-yl)-4-(piperidin-2-ylmethoxy)phenyl)cyclopropanecarboxamide] and `Cc1noc(C)c1-c1cc(NC(=O)C2CC2)ccc1OC[C@H]1CCCN1` [Compound 175, (R)—N-(3-(3,5-dimethylisoxazol-4-yl)-4-(pyrrolidin-2-ylmethoxy)phenyl)cyclopropanecarboxamide] are within 1.5-fold of each other in Ki: 49.6 nM for the first, 41.6 nM for the second.

First: Cc1noc(C)c1-c1cc(NC(=O)C2CC2)ccc1OC[C@@H]1COCCN1 [Compound 171, (S)—N-(3-(3,5-dimethylisoxazol-4-yl)-4-(morpholin-3-ylmethoxy)phenyl)cyclopropanecarboxamide]
Second: Cc1noc(C)c1-c1cc(NC(=O)C2CC2)ccc1OC[C@H]1COCCN1 [Compound 173, (R)—N-(3-(3,5-dimethylisoxazol-4-yl)-4-(morpholin-3-ylmethoxy)phenyl)cyclopropanecarboxamide]
The Ki of the first is 1.9-fold higher: 184 nM for the first, 96.9 nM for the second.

Going from `Cc1noc(C)c1-c1cc(NC(=O)C2CC2)ccc1OCC1CCN1` (stereo not drawn) [Compound 174, N-[4-(azetidin-2-ylmethoxy)-3-(3,5-dimethylisoxazol-4-yl)phenyl]cyclopropanecarboxamide] to `Cc1noc(C)c1-c1cc(NC(=O)C2CC2)ccc1OC[C@@H]1CCCN1` [Compound 176, (S)—N-(3-(3,5-dimethylisoxazol-4-yl)-4-(pyrrolidin-2-ylmethoxy)phenyl)cyclopropanecarboxamide], the Ki rises from 48 nM to 395 nM (8.2-fold). The first binds more tightly here.

`Cc1noc(C)c1-c1cc(NC(=O)c2ccnn2C)ccc1OC[C@H]1CCCCN1` [Compound 177, N-[3-(3,5-dimethylisoxazol-4-yl)-4-[[(2R)-2-piperidyl]methoxy]phenyl]-2-methyl-pyridinerazole-3-carboxamide] and `Cc1nocc1C(=O)Nc1ccc(OC[C@H]2CCCCN2)c(-c2c(C)noc2C)c1` [Compound 183, (R)—N-(3-(3,5-dimethylisoxazol-4-yl)-4-(piperidin-2-ylmethoxy)phenyl)-3-methylisoxazole-4-carboxamide] are within 1.5-fold of each other in Ki: 4.22 nM for the first, 5.09 nM for the second.

Going from `Cc1noc(C)c1-c1cc(NC(=O)C2CC2)ccc1O[C@H]1CCCNC1` [Compound 178, N-[3-(3,5-dimethylisoxazol-4-yl)-4-[[(3S)-3-piperidyl]oxy]phenyl]cyclopropanecarboxamide] to `Cc1noc(C)c1-c1cc(NC(=O)C2CC2)ccc1O[C@@H]1CCCNC1` [Compound 179, (R)—N-(3-(3,5-dimethylisoxazol-4-yl)-4-(piperidin-3-yloxy)phenyl)cyclopropanecarboxamide], the Ki falls from 718 nM to 85.9 nM (8.4-fold). The second binds more tightly here.

Going from `Cc1noc(C)c1-c1cc(NC(=O)C2CC2)ccc1O[C@H]1CCNC1` [Compound 180, (S)—N-(3-(3,5-dimethylisoxazol-4-yl)-4-(pyrrolidin-3-yloxy)phenyl)cyclopropanecarboxamide] to `Cc1noc(C)c1-c1cc(NC(=O)C2CC2)ccc1O[C@@H]1CCNC1` [Compound 181, (R)—N-(3-(3,5-dimethylisoxazol-4-yl)-4-(pyrrolidin-3-yloxy)phenyl)cyclopropanecarboxamide], the Ki falls from 186 nM to 10 nM (19-fold). The second binds more tightly here.

First: Cc1noc(C)c1-c1cc(NC(=O)c2cnoc2)ccc1OC[C@H]1CCCCN1 [Compound 182, N-[3-(3,5-dimethylisoxazol-4-yl)-4-[[(2R)-2-piperidyl]methoxy]phenyl]isoxazole-4-carboxamide]
Second: Cc1noc(C)c1-c1cc(NC(=O)c2cnsc2)ccc1OC[C@H]1CCCCN1 [Compound 186, (R)—N-(3-(3,5-dimethylisoxazol-4-yl)-4-(piperidin-2-ylmethoxy)phenyl)isothiazole-4-carboxamide]
The Ki of the first is 8-fold higher: 61.5 nM for the first, 7.71 nM for the second.

`Cc1noc(C)c1-c1cc(NC(=O)c2cnoc2C)ccc1OC[C@H]1CCCCN1` [Compound 184, (R)—N-(3-(3,5-dimethylisoxazol-4-yl)-4-(piperidin-2-ylmethoxy)phenyl)-5-methylisoxazole-4-carboxamide] and `Cc1noc(C)c1-c1cc(NC(=O)c2ncoc2C)ccc1OC[C@H]1CCCCN1` [Compound 185, (R)—N-(3-(3,5-dimethylisoxazol-4-yl)-4-(piperidin-2-ylmethoxy)phenyl)-5-methyloxazole-4-carboxamide] are within 1.5-fold of each other in Ki: 10.5 nM for the first, 8.77 nM for the second.

Going from `Cc1noc(C)c1-c1cc(NC(=O)c2ncsc2C)ccc1OC[C@H]1CCCCN1` [Compound 188, (R)—N-(3-(3,5-dimethylisoxazol-4-yl)-4-(piperidin-2-ylmethoxy)phenyl)-5-methylthiazole-4-carboxamide] to `Cc1ncsc1C(=O)Nc1ccc(OC[C@H]2CCCCN2)c(-c2c(C)noc2C)c1` [Compound 193, (R)—N-(3-(3,5-dimethylisoxazol-4-yl)-4-(piperidin-2-ylmethoxy)phenyl)-4-methylthiazole-5-carboxamide], the Ki falls from 4.5 nM to 2.69 nM (1.7-fold). The second binds more tightly here.

`Cc1noc(C)c1-c1cc(NC(=O)[C@@H]2C[C@H]2F)ccc1OC[C@H]1CCCCN1` [Compound 190, (1S,2R)—N-(3-(3,5-dimethylisoxazol-4-yl)-4-(((R)-piperidin-2-yl)methoxy)phenyl)-2-fluorocyclopropane-1-carboxamide] gave a Ki of 1.19 nM.
